Source: patent publication US20260000496A1, “MATERIALS AND METHODS FOR DRUG-INDUCED GINGIVAL OVERGROWTH” (Optimed Technology, Inc., priority 2019, published 2026)

Assays:
Human TNF-α promoter = assay: TNF-α promoter luciferase reporter assay in oral keratinocytes; assay type: cell-based; details: full length promoter and deletion constructs; CSA, LPS & Folic acid each 10 μg/ml; p<0.05
Protocol: Reporter assay. The TNF-α promoter deletion constructs, Δ−1220 (−1220 to +65) and Δ−450 (−450 to +65) were synthesized from SwitchGear Genomics (USA) for the luciferase reporter assay. The human TNF-α promoter constructs or an empty pLightSwitch promoter reporter vector as a control was transfected in to NOKSI using the FuGene reagent (SwitchGear Genomics, USA). Cells were seeded with a density of 5×10^3 per well of 96-well plate. GoClone reporter constructs and transfection reagents were mixed with optimum combination and incubated for 30 minutes. The media were changed to the seeded cells and reaction mixture were gently dripped onto the seeded cells, shaked the plate gently and incubated for next 24 hours. The LightSwitch assay reagents were added to the transfected plates and incubated for 30 minutes at room temperature. Luciferase activity were measured with a luminometer (Wallac Vector3; PerkinElmer, Boston, MA).
Oral Keratinocytes cells were transfected with Full length TNF-α promoter and […] and treated with CSA (10 μg/ml) & LPS (10 μg/ml), and CSA (10 μg/ml), LPS (10 μg/ml) & Folic acid (10 μg/ml). TNF-α luciferase reporter activity were measured. (p<0.05).

p-P65 = assay: Immunofluorescence of p-P65 nuclear translocation in oral keratinocytes; assay type: cell-based, human; details: 24 hours
Protocol: Immunostaining and fluorescence microscopy. The cultured cells were fixed with 4% paraformaldehyde followed by permeabilization with phosphate buffered saline (PBS) containing 0.1% Triton X-100 (PBS-T), and blocking with PBS-T containing 5% bovine serum albumin (BSA). Then, the cells were incubated with anti-pP65 antibody (Cell Signaling, USA) followed by Alexa Fluor 488 conjugated-goat anti-rabbit secondary antibody (Invitrogen, Grand Island). Rhodamine phalloidin (Invitrogen) and 4′,6-diamidino-2-phenylindole (Vector labs, Burlingame) were added to visualize the actin and nucleus respectively. The samples were mounted and examined using a Zoe microscope (BioRad, USA). The image analyses were performed using the ImageJ (NIH) software.
Oral Keratinocytes cells were cultured, and treated with CSA, LPS or FA alone or with combinations and incubated for 24 hours. The immunofluorescent images were taken to determine the translocation of p-P65 (green) to the nucleus (blue). Cells were counterstained with Phalloidin (cytoskeleton, red) and DAPI (nucleus).
Oral Keratinocytes cells were seeded in 24 well plates. […] Translocation of phospho-p65 (p-P65) protein to the nucleus was determined by fluorescence microscopy as shown in the green color. The morphology of cells and nucleus position were determined by palloidin and DAPI staining shown by red and blue colors respectively.

Myd88 = assay: Mice study #2: Myd88 immunostaining of gingival tissue; assay type: in vivo, C57BL/6 mice; details: preventive and active treatment groups consistent
Protocol: Mice study #2: Validation study for preventive and active treatment for DIGO. […] One set of these mice were used as a control disease group (FIG. 23A) while the other group was treated with folic acid (gel and in drinking water) (FIG. 23B). In the prevention and treatment group, folic acid (10 μg/ml) (Sigma-Aldrich, St. Louis MO) was included in the drinking water from the time of suture placement until end of the study (14 days). Additionally, gel applications were repeated daily until the end of the study (14 days). The four groups in this study were: • 1. Control group (n=2): no interventions were performed • 2.
Histopathology and Immunohistochemistry. Mice mandibles were fixed in 10% formaldehyde for overnight at 4° C. on the shaker with 45 rpm and then the solutions were replaced with 70% ethanol. The tissues were decalcified with 10% ethylenediaminetetraacetic acid (EDTA) for 1 week and were dehydrated through graded ethanol, cleared with xylene, and embedded in paraffin. 4 μm serial sections were cut in a buccal-lingual direction and stained with Hematoxylin and Eosin (HE) and observed under light microscopy for histomorphological evaluations.
For immunohistochemistry, unstained sections were deparaffinized in xylene for 10 minutes and then transferred to ethanol for 20 minutes. […]

TLR2 = assay: FACS of surface TLR2 on oral keratinocytes; assay type: cell-based, human; details: LPS (10 μg/ml), Phe (10 μg/ml), different concentration of folic acid, 24 hours
Protocol: Flow cytometry. NOKSI cells were seeded in 100 mm plates with a density of 1×10^6 cells per plate. Cells were treated with drugs, LPS, and folic acid alone or in combination. After NOKSI were detached using Corning Cell Lifter (Corning) and 10 mM EDTA in PBS, the cells were washed with FACS buffer (PBS containing 1% BSA [Sigma] and 2 mM EDTA). Cells were stained by immunofluorescence for CD282 (TLR2) and CD284 (TLR4). Fluorescent labeled antibodies at a dilution of 1:1000 in staining buffer with 2% FBS in PBS were added and incubated for 30 min in dark on ice. Cells were centrifuged and washed thrice in staining buffer and passed through a 70 μm cell strainer before data acquisition. Data analysis was performed using FlowJo (TreeStar, Ashland, OR, USA). All incubations were performed on ice.
Oral Keratinocytes Cells were treated with only LPS (10 μg/ml) for 24 hours. […] Cells were treated with LPS (10 μg/ml) and Phe (10 μg/ml) for 24 hours. […] Cells were treated with LPS (10 μg/ml), Phe (10 μg/ml), and FA ([…]) for 24 hours. […] FIG. 16.

Nc1nc2ncc(CNc3ccc(C(=O)N[C@@H](CCC(=O)O)C(=O)O)cc3)nc2c(=O)[nH]1 [folic acid]
TNF-α luciferase reporter activity (Human TNF-α promoter): inhibits promoter activity of TNF-α | translocation of p-P65 to the nucleus (p-P65; CSA, LPS or FA alone or in combinations): inhibits CSA-induced activation of phospho-P65 | translocation of phospho-p65 (p-P65) protein to the nucleus (p-P65; LPS, Phe, FA each 10 μg/ml): reduced nuclear translocation of p-P65 | epithelial Myd88 expression, disease group relative to folic acid-treated group (Myd88): significantly higher compared to both treated and control groups | TLR2 receptor on the cell surface (TLR2): do not alter
